Measurements reported in US11752111B2, “Use of cannabidivarin in the treatment of autism spectrum disorder, associated disorders and schizophrenia” (GW Research Limited, priority 2016, dated 2023).

What was measured:
VPA-exposed rats = assay: Locomotor activity and repetitive behaviours (self-grooming), prenatal VPA model; type: in vivo, rat; conditions: VPA offspring
Experimental: Pregnant Sprague-Dawley rats (Charles River, Calco, Italy), received a single intraperitoneal injection of 500 mg/kg sodium valproate on the 12.5 day after conception, and control females were injected with physiological saline at the same time. Sodium valproate (Sigma Aldrich, Milan, IT) was dissolved in saline at a concentration of 250 mg/ml.
CBDV was dissolved in ethanol, cremophor and saline (1:1:18). Symptomatic treatment with CBDV at doses of 0.2, 2, 20, and 100 mg/kg/day i.p. was performed starting from PND 34 (early adolescence) till 56 (early adulthood), both in male and female offspring of dams injected with VPA 500 mg/kg (or vehicle) on day 12.5 after conception. At PND 56, a series of behavioural tests was performed in order to assess the effect of chronic CBDV on sociability, social novelty, short-term memory, locomotion and stereotyped/repetitive behaviours.
Locomotor activity and repetitive behaviours: Locomotor activity was recorded in an activity cage for 20 minutes with the aid of Anymaze program (Ugo Basile, Italy). In this period, repetitive behaviours (self-grooming and digging) were measured by an observer blind to the treatment group.

MeCP2 KO mice = assay: Body weight gain in Rett syndrome model; type: in vivo, mouse
Experimental: CBDV was administered daily at the dose of 2, 20 and 200 mg/kg i.p. starting from PND 28 and the following signs were scored every other day: hindlimb clasping (indication of motor imbalance), tremor, gait (measure of coordination), breathing, mobility and general condition.
The CBDV was dissolved in ethanol, cremophor and saline (1:1:18).
Starting from PND 28, mice received a daily intraperitoneal injection of CBDV (or vehicle) at the dose of 2, 20 and 200 mg/kg. Animals were then scored every other day to evaluate the effect of CBDV treatment on motor symptoms (hindlimb clasping, gait, mobility) as well as neurological signs and general conditions (breathing abnormalities, tremors and general condition) present in MeCP2 knockout (KO) mice.

Fmr1 KO mice = assay: Novel object recognition task in Fragile X model; type: in vivo, mouse
Experimental: Fmr1 KO mice and wild type mice were obtained and housed four per cage in a temperature of 21° C.±1° C. and humidity of 55%±10% controlled environment. Food and water were available ad libitum. All experiments were performed during the light phase of a 12 hour light/dark cycle (08:00 to 20:00). Animals were handled for one week before the start of experiments. All behavioural tests were performed by researchers blind to the different experimental groups.
On day one mice were habituated for 10 minutes to the empty V-maze in which the task was to be performed. On the second day the mice went back to the maze for 10 minutes which contained two identical objects at the end of each corridor in the V-maze.
The following day the mice were placed again in the same maze for a further 10 minutes but one of the familiar objects was replaced for a novel object. The total time spent exploring the novel and familiar object was recorded. A discrimination index was calculated as the difference between the time spent exploring the novel and familiar object divided by the total time exploring the two objects. A high discrimination index (0.3-0.5) is considered to reflect memory retention for the familiar object.
Adult mice (10-15 weeks old) were treated either acutely with one dose of CBDV on […] or were treated once daily with CBDV for 7 consecutive days. Mice were evaluated in the novel object recognition task after the first and sixth day of CBDV administration. Doses of CBDV used were 2, 10, 20, 100 and 200 mg/kg.

Ube3am-/p+ (AS) mice [1] = assay: Tail suspension test in Angelman syndrome model; type: in vivo, mouse; conditions: CBDV 20 mg/kg i.p.; AS mice vs AS vehicle
Experimental: (§1) Heterozygous mice with maternal deficiency of Ube3A (Ube3am−/p+) and wild type (Ube3am+/p+) were purchased from The Jackson Laboratory (Jackson code: B6.129S7-Ube3a tm1Alb/J) and maintained in a C57BL/6 background.
(§2) Drugs were dissolved in 1:1:18 ethanol:cremophor:0.9% saline, for intraperitoneal (i.p.) administration. Drug treatment was performed daily for 35 days. CBDV was administered at 20 mg/kg.
Tail suspension: The tail suspension test assesses depressive-like behaviour in mice. Mice were individually suspended by the tail on a horizontal bar (50 cm from floor) using adhesive tape placed approximately 4 cm from the tip of the tail. The duration of immobility was recorded in seconds over a period of 6 minutes by a time recorder. Immobility time was defined as the absence of escape-oriented behaviour.

Ube3am-/p+ (AS) mice [2] = assay: Novel object recognition in Angelman syndrome model; type: in vivo, mouse; conditions: CBDV 20 mg/kg i.p.; AS mice at 7-8 weeks vs AS vehicle
Experimental: as §1, §2
Novel Object Recognition: The novel object recognition assesses recognition memory in mice. The experiment started with the habituation period, during which mice were allowed to freely explore for 1 hour the apparatus which consists of a rectangular open box (40×30×30 cm width×length×height) made of grey polyvinyl chloride (PVC) illuminated by a dim light. The day after each mouse was allowed to explore two identical objects positioned in the back left and right corners for 5 min (acquisition). A video camera recorded the time spent on exploration of each object. […] The behaviour of mice was analyzed by an observer blind to the treatment. Data are expressed as percentage of recognition index (RI %), which was calculated as the percentage of the time spent exploring the novel object/time spent exploring the novel object+time spent exploring the familiar object×100.

`C=C(C)[C@@H]1CCC(C)=C[C@H]1c1c(O)cc(CCC)cc1O` [CBDV, Cannabidivarin] was tested, and the “repetitive behaviours (compulsive self-grooming) (FIG. 2A)” value (VPA-exposed rats; 20 mg/kg in males) was “significantly normalize”, the “locomotor activity (FIG. 2B)” value (VPA-exposed rats; 2, 20 and 100 mg/kg in males) was “normalize” and the “repetitive behaviours (compulsive self-grooming) (FIG. 2A)” value (VPA-exposed rats; 2 and 100 mg/kg in females) was “significantly normalize”. For the same molecule, the “body weight gain (FIG. 4A)” value (MeCP2 KO mice; 2, 20 and 200 mg/kg i.p. daily PND 28-66, MeCP2 KO mice) was “partially prevent the reduction in body weight”, the “body weight, area under the curve (FIG. 4B)” value (MeCP2 KO mice; KO mice) was “significantly rescued body weight” and the “body weight, area under the curve (FIG. 4B)” value (MeCP2 KO mice; WT controls) was “without affecting body weight”. The “discrimination index (FIG. 3A)” value (Fmr1 KO mice) was “no effect”, the “increase of discrimination index over vehicle treated mice (FIG. 3A)” value (Fmr1 KO mice; acute treatment, 2 mg/kg, knockout mice) was “not significant” and the “discrimination index vs vehicle treated knockout mice (FIG. 3B)” value (Fmr1 KO mice; chronic treatment once daily for 7 days, 20 and 100 mg/kg, knockout mice) was “statistically significant increase”. The “duration of immobility time, tail suspension (FIG. 14)” value (Ube3am-/p+ (AS) mice [1]) was “significantly reduced the duration of immobility time” and the “discrimination index, novel object recognition (FIG. 13)” value (Ube3am-/p+ (AS) mice [2]) was “significantly increased the discrimination index”.
